Measurements reported in US20140112992A1, “PROCESS FOR FEBUXOSTAT” (HETERO RESEARCH FOUNDATION, priority 2011, published 2014).

Tests used:
[1] = Particle size distribution (D50) by laser diffraction, Sympatec Helos; assay type: physicochemical
Source text: The term “Particle Size Distribution (P.S.D.)” means the cumulative volume size distribution of equivalent spherical diameters as determined by laser diffraction at 1 bar dispersive pressure in Sympatec Helos equipment. “Mean particle size distribution, i.e., D50” correspondingly, means the median of said particle size distribution.

levels of uric acid = settings: compared to allopurinol; cited from earlier work

| D50 (mean particle size distribution) ([1]; after grinding for 5 to 10 minutes) | D50 (mean particle size distribution) ([1]; before grinding, in µm (unit assumed)) | Structure (SMILES) | amount of initial gout flares or surface area of gout tophi (levels of uric acid) | individuals with decreased levels of uric acid (levels of uric acid) |
| --- | --- | --- | --- | --- |
| 2.15 μm | 322.46 | Cc1nc(-c2ccc(OCC(C)C)c(C#N)c2)sc1C(=O)O [Febuxostat crystalline Form H1, 2-[3-cyano-4-(2-methylpropoxy)phenyl]-4-methyl-5-thiazolecarboxylic acid] | – | – |
| – | – | Cc1nc(-c2ccc(OCC(C)C)c(C#N)c2)sc1C(=O)O [febuxostat, 2-[3-cyano-4-(2-methylpropoxy)phenyl]-4-methyl-5-thiazolecarboxylic acid] | no difference | more individuals treated with febuxostat had decreased levels of uric acid |
